# Test results taken from US7122173B2, “Agent for the treatment of bladder irritative symptoms accompanied by benign prostatic hyperplasia” (Kyowa Hakko Kogyo Co., Ltd., priority 2001, dated 2006).
# Experiments:
# dd male mice = details: mouse, in vivo, po, 7 day
# Method: The test compound was administered orally or intraperitoneally to 3 animals per group of dd male mice (body weight, 20±1 g). Minimum lethal dose (MLD) value was obtained by observing mortality on the 7th day after the administration.
# [1] = test system: delayed rectifier K^+ channel; assay: Voltage clamp, delayed rectifier K+ currents (HP −20 mV) in unidentified DRG neurons; format: cell-based, rat; details: for K+ current HP: −20 mV (delayed rectifier), relative value (before drug = 1): unidentified DRG neurons
# Method: (§1) Experiments were performed on adult female Sprague Dawley rats. First and second series of the experiments were performed, respectively, in unidentified DRG neurons and a specific population of DRG neurons innervating the urinary bladder. The population of DRG neurons that innervate the urinary bladder were labeled by retrograde axonal transport of the fluorescent dye, Fast Blue (4% w/v) (Polyloy, Gross Umstadt, Germany), injected into the wall of the bladder in halothane-anesthetized animals 7 days before the dissociation. The dye was injected with a 28 gauge needle at three to six sites on the dorsal surface of the organ (5–6 μL per site, total volume of 20–30 μL). Each injection site was washed with saline to minimize contamination of adjacent organs with the dye.
# (§2) Freshly dissociated neurons from DRG were prepared from halothane-anesthetized animals. L6 and S1 DRG were dissected from animals and then dissociated in a shaking bath for 25 minutes at 35° C. with 5 mL DMEM (Sigma) containing 0.3 mg/mL trypsin (Type 3, Sigma), 1 mg/mL collagenase (Type 1, Sigma), and 0.1 mg/mL deoxyribonuclease (Type 4, Sigma). Trypsin inhibitor (Type 2a, Sigma) was then added thereto to neutralize the activity of trypsin. Individual DRG cell bodies were isolated by trituration and then plated on a poly-L-lysine-coated 35 mm Petri dishes.
# (§3) Dye-labeled primary afferent neurons that innervate the urinary bladder were identified using an inverted phase-contrast microscope (Nikon, Tokyo, Japan) with fluorescent attachments (UV-1A filter; excitation wavelength, 365 nm). Gigaohm-seal whole-cell recordings were performed at room temperature (20–22° C.) on each labeled neuron in a culture dish that usually contained three to seven labeled cells among a few hundred unlabeled neurons. The internal solution contained (in mmol/L): KCl 140, CaCl2 1, MgCl2 2, EGTA 11, HEPES 10, Mg-ATP 2, and Tris-GTP 0.4 adjusted to pH 7.4 with KOH. Patch electrodes had resistances of 1–4 M Ω when filled with the internal solution. Neurons were superfused at a flow rate of 1.5 mL/minutes with an external solution containing (in mmol/L): NaCl 150, KCl 5, CaCl2 2.5, MgCl2 1, HEPES 10, and D-glucose 10, adjusted to pH 7.4 with NaOH. All recordings were made with an Axopatch-1D patch-clamp amplifier (Axon Instruments, Foster City, Calif.), and data were acquired and analyzed by PCLAMP software (Axon Instruments).
# In voltage-clamp recordings, outward K^+ currents and inward Na^+ currents were measured. For the isolation of K^+ currents, the external solution was changed to one containing (in mmol/L): choline-Cl 150, KOH 5, CaCl2 0.03, HEPES 10, Mg(OH)2 3, and D-glucose 10, adjusted to pH 7.4 with HCl.
# In first series of experiments using unidentified DRG neurons, outward K^+ currents were evoked by voltage steps to +60 mV, 800 ms long from a holding potentials of −90 mV, this was followed by a 1-second conditioning pre-pulse to −20 mV followed by a second pulse to +60 mV, identical to the first in the sequence. In the second series of experiments using Fast Blue-labeled bladder afferent neurons, slowly-inactivating A-type K^+ currents were isolated by subtraction of outward K^+ currents activated from a holding potential of −40 mV (on the condition of inactivation of the majority of slowly-inactivating A-type K^+ currents) from those activated from a holding potential of −120 mV (on the condition of full activation of slowly-inactivating A-type K^+ currents). A compound was added cumulatively, starting with a lower concentration. Currents were measured at the maximum (peak) and normalized to control (before addition of the compound).
# The currents at a holding potential (HP) of −90 mV are results of the measurement of slowly-inactivating A-type K^+ currents, and the currents at an HP value of −20 mV are results of the measurement of delayed rectifier K^+ currents. […]
# [2] = test system: Na^+ currents in DRG cells; assay: Voltage clamp, inward Na+ currents in DRG cells; format: cell-based, rat
# Method: as §1, §2, §3
# Inward Na^+ currents were evoked by voltage steps to +60 mV, 800 ms long from a holding potentials of −90 mV. Currents were measured at the maximum (peak) and normalized to control (before addition of the compound).
compound,measurement,setting,value
"C[C@](O)(C(=O)Nc1cccc2c1C(=O)c1sccc1CS2(=O)=O)C(F)(F)F [Compound 1, (S)-(+)-N-(5,5-dioxido-10-oxo-4,10-dihydrothieno[3,2-c][1]benzothiepin-9-yl)-3,3,3-trifluoro-2-hydroxy-2-methylpropanamide]",Minimum lethal dose (MLD),dd male mice,"> 1,000 mg/kg"
same,"K+ current HP: −20 mV, relative value (before drug = 1)","[1]; Compound 1 1.0 × 10^−5 mol/L, in the presence of 5 μmol/L verapamil",1.00 ± 0.02
same,"K+ current HP: −20 mV, relative value (before drug = 1)","[1]; Compound 1 1.0 × 10^−5 mol/L, in the presence of 20 mmol/L tetraethylammonium",1.01 ± 0.02
same,"K+ current HP: −20 mV (delayed rectifier), relative value (before drug = 1)",[1]; Compound 1 1.0 × 10^−5 mol/L,0.88 ± 0.07
same,"K+ current HP: −20 mV, relative value (before drug = 1)","[1]; Compound 1 1.0 × 10^−6 mol/L, in the presence of 5 μmol/L verapamil",1.00 ± 0.01
same,"K+ current HP: −20 mV, relative value (before drug = 1)","[1]; Compound 1 1.0 × 10^−6 mol/L, in the presence of 20 mmol/L tetraethylammonium",1.00 ± 0.00
same,"K+ current HP: −20 mV (delayed rectifier), relative value (before drug = 1)",[1]; Compound 1 1.0 × 10^−6 mol/L,1.00 ± 0.02
same,"K+ current HP: −20 mV, relative value (before drug = 1)","[1]; Compound 1 1.0 × 10^−7 mol/L, in the presence of 5 μmol/L verapamil",1.00 ± 0.01
same,"K+ current HP: −20 mV, relative value (before drug = 1)","[1]; Compound 1 1.0 × 10^−7 mol/L, in the presence of 20 mmol/L tetraethylammonium",0.99 ± 0.02
same,"K+ current HP: −20 mV (delayed rectifier), relative value (before drug = 1)",[1]; Compound 1 1.0 × 10^−7 mol/L,1.02 ± 0.01
same,"K+ current HP: −20 mV (delayed rectifier), relative value (before drug = 1)",[1]; Compound 1 1.0 × 10^−8 mol/L,0.98 ± 0.04
same,"K+ current HP: −20 mV (delayed rectifier), relative value (before drug = 1)",[1]; Compound 1 2.5 × 10^−8 mol/L,1.01 ± 0.03
same,"K+ current HP: −20 mV, relative value (before drug = 1)","[1]; Compound 1 5.0 × 10^−4 mol/L, in the presence of 5 μmol/L verapamil",0.83 ± 0.06
same,"K+ current HP: −20 mV, relative value (before drug = 1)","[1]; Compound 1 5.0 × 10^−4 mol/L, in the presence of 20 mmol/L tetraethylammonium",0.25 ± 0.04
same,"K+ current HP: −20 mV, relative value (before drug = 1)","[1]; Compound 1 5.0 × 10^−4 mol/L, in the presence of 60 mmol/L tetraethylammonium",0.54 ± 0.02
same,"K+ current HP: −20 mV, relative value (before drug = 1)","[1]; Compound 1 5.0 × 10^−5 mol/L, in the presence of 5 μmol/L verapamil",0.98 ± 0.01
same,"K+ current HP: −20 mV, relative value (before drug = 1)","[1]; Compound 1 5.0 × 10^−5 mol/L, in the presence of 20 mmol/L tetraethylammonium",0.84 ± 0.06
same,"K+ current HP: −20 mV, relative value (before drug = 1)","[1]; Compound 1 5.0 × 10^−5 mol/L, in the presence of 60 mmol/L tetraethylammonium",0.95 ± 0.03
same,"K+ current HP: −20 mV (delayed rectifier), relative value (before drug = 1)",[1]; Compound 1 5.0 × 10^−5 mol/L,0.81 ± 0.08
same,"K+ current HP: −20 mV, relative value (before drug = 1)","[1]; Compound 1 5.0 × 10^−6 mol/L, in the presence of 5 μmol/L verapamil",1.01 ± 0.01
same,"K+ current HP: −20 mV, relative value (before drug = 1)","[1]; Compound 1 5.0 × 10^−6 mol/L, in the presence of 20 mmol/L tetraethylammonium",0.98 ± 0.01
same,"K+ current HP: −20 mV, relative value (before drug = 1)","[1]; Compound 1 5.0 × 10^−6 mol/L, in the presence of 60 mmol/L tetraethylammonium",0.97 ± 0.02
same,"K+ current HP: −20 mV, relative value (before drug = 1)","[1]; Compound 1 5.0 × 10^−7 mol/L, in the presence of 5 μmol/L verapamil",1.00 ± 0.01
same,"K+ current HP: −20 mV, relative value (before drug = 1)","[1]; Compound 1 5.0 × 10^−7 mol/L, in the presence of 20 mmol/L tetraethylammonium",1.01 ± 0.01
same,"K+ current HP: −20 mV, relative value (before drug = 1)","[1]; Compound 1 5.0 × 10^−7 mol/L, in the presence of 60 mmol/L tetraethylammonium",0.97 ± 0.03
same,"K+ current HP: −20 mV (delayed rectifier), relative value (before drug = 1)",[1]; Compound 1 5.0 × 10^−7 mol/L,1.01 ± 0.02
same,"K+ current HP: −20 mV, relative value (before drug = 1)","[1]; Compound 1 5.0 × 10^−8 mol/L, in the presence of 5 μmol/L verapamil",1.00 ± 0.00
same,"K+ current HP: −20 mV, relative value (before drug = 1)","[1]; Compound 1 5.0 × 10^−8 mol/L, in the presence of 20 mmol/L tetraethylammonium",0.99 ± 0.01
same,"K+ current HP: −20 mV, relative value (before drug = 1)","[1]; Compound 1 5.0 × 10^−8 mol/L, in the presence of 60 mmol/L tetraethylammonium",1.00 ± 0.01
same,"K+ current HP: −20 mV (delayed rectifier), relative value (before drug = 1)",[1]; Compound 1 5.0 × 10^−8 mol/L,1.00 ± 0.01
same,"K+ current HP: −20 mV, relative value (before drug = 1)","[1]; Compound 1 5.0 × 10^−9 mol/L, in the presence of 20 mmol/L tetraethylammonium",0.99 ± 0.00
same,"K+ current HP: −20 mV (delayed rectifier), relative value (before drug = 1)",[1]; Compound 1 5.0 × 10^−9 mol/L,0.98 ± 0.02
same,"Na^+ ion currents, normalized to control (before addition)",[2]; Compound 1 1.0 × 10^−6 mol/L,0.99 ± 0.02
same,"Na^+ ion currents, normalized to control (before addition)",[2]; Compound 1 5.0 × 10^−4 mol/L,1.00 ± 0.01
same,"Na^+ ion currents, normalized to control (before addition)",[2]; Compound 1 5.0 × 10^−5 mol/L,1.00 ± 0.01
same,"Na^+ ion currents, normalized to control (before addition)",[2]; Compound 1 5.0 × 10^−6 mol/L,1.00 ± 0.00
same,"Na^+ ion currents, normalized to control (before addition)",[2]; Compound 1 5.0 × 10^−7 mol/L,0.99 ± 0.01
same,"Na^+ ion currents, normalized to control (before addition)",[2]; Compound 1 5.0 × 10^−8 mol/L,0.99 ± 0.01
same,Influence upon Na^+ currents (in words),[2]; DRG cells,does not exert influence upon Na^+ currents
